# Laboratory results published in US20240116863A1, “DIPHENYL THIOUREA AND DIPHENYL UREA DERIVATIVES AS INHIBITORS OF ENDOCYTOSIS” (priority 2022, published 2024).
# Entries after “also recorded” stand apart in the source; their conditions may differ. Where two headings read alike, the source gives them in different places.
# Assays:
# [1] = test system: SARS-CoV-2 Delta (B.1.617.2) and Omicron (B.1.1.529) strains; test: Infection of Vero-E6 cells with additional SARS-CoV-2 strains; type: cell-based
# [2] = test system: IAV (WSN); type: cell-based, influenza A virus
# [3] = test system: IAV (WSN); type: in vivo, C57BL/6 mice
# [4] = test system: IAV (X-31); type: cell-based, influenza A virus; settings: 10 μM, A549 cells
# [5] = test system: transferrin endocytosis in A549 cells; type: cell-based; settings: 10 μM
# [6] = test system: EGF endocytosis in A549 cells; type: cell-based; settings: 10 μM
# [7] = test system: cholera toxin B (CTXB) endocytosis in A549 cells; type: cell-based; settings: 10 μM
# [8] = test system: organelle acidification in A549 cells; type: cell-based; settings: 10 μM, 1 h
# [9] = test system: A549 cells; type: cell-based, Human
# Experimental: Human lung epithelial cells (A549) were seeded in a 96-well optical-bottom plate. When the cells reached 70-80% confluency, the cells were treated with the compounds (DPUDs and DPTUD) dissolved in DMSO) (50 ∥M) for 12 h at 37° C. Following treatment, the cells were washed with PBS and fixed with 4% formaldehyde for 20 min at room temperature. Nucleus was stained with Hoechst diluted in PBS (1:10000). High-content microscopy and image analysis were performed to quantitate cell number (FIG. 3). All data are represented as mean±SD. The P-value was determined using one-way ANOVA with multiple comparisons w.r.t. DMSO. ns: P>0.05, *P<0.05, **P<0.01, ***P<0.001, ****P<0.0001.
# [10] = test system: cellular endocytosis; settings: cited from earlier work
compound,measurement,setting,value
"O=C(Nc1cc(Br)cc(Br)c1)Nc1cc(Br)cc(Br)c1 [DPUD-23, 1,3-bis(3,5-dibromophenyl)urea]",effect on infection with SARS-CoV-2 Delta and Omicron,[1],highly effective; also recorded: Reduced infection
"O=C(Nc1cc(F)cc(F)c1)Nc1cc(F)cc(F)c1 [DPUD-16, 1,3-bis(3,5-difluorophenyl)urea]",effect on infection with SARS-CoV-2 Delta and Omicron,[1],Reduced infection
"O=C(Nc1ccc(C(F)(F)F)cc1)Nc1ccc(C(F)(F)F)cc1 [DPUD-2, 1,3-bis(4-(trifluoromethyl)phenyl)urea]",effect on infection with SARS-CoV-2 Delta and Omicron,[1],highly effective; also recorded: Reduced infection
"O=C(Nc1cc(C(F)(F)F)cc(C(F)(F)F)c1)Nc1cc(C(F)(F)F)cc(C(F)(F)F)c1 [DPUD-1, 1,3-bis(3,5-bis(trifluoromethyl)phenyl)urea]",effect on infection with SARS-CoV-2 Delta and Omicron,[1],highly effective; also recorded: Reduced infection
same,IAV (WSN) titre in virus plaque assay,[2],significant reduction
same,body weight recovery of the infected mice,"[3]; […], 1 mg/kg i.p. twice daily 5 days",most effective
same,lung viral titres (RT-PCR of NP gene and plaque assay),"[3]; mouse, in vivo",significant reduction
same,survival of infected mice,"[3]; mouse, in vivo",Better survival
same,virus particle internalization in live cells,[4],majority of the virus particles failed to enter the cells
"FC(F)(F)c1cc(NC(=S)Nc2cc(C(F)(F)F)cc(C(F)(F)F)c2)cc(C(F)(F)F)c1 [DPTUD, 1,3-bis(3,5-bis(trifluoromethyl)phenyl)thiourea]",transferrin uptake,[5],significantly blocked
same,EGF uptake,[6],significantly blocked
same,cholera toxin B (CTXB) uptake,[7],significantly blocked
same,organelle acidification (LysoTracker-positive signal),[8],robustly inhibited
same,cytotoxicity,"[9]; 50 μM, 12 h, A549 cells",did not show cytotoxicity
methyl-β-cyclodextrin,inhibitory concentration of known endocytosis inhibitor,[10]; 100× higher than the derivatives,1 mM
"O=C(Nc1ccc(OC(F)(F)F)cc1)Nc1ccc(OC(F)(F)F)cc1 [DPUD-20, 1,3-bis(4-(trifluoromethoxy)phenyl)urea]",effect on infection with SARS-CoV-2 Delta and Omicron,[1],Reduced infection
"CN(C)CCCN1c2ccccc2Sc2ccc(Cl)cc21 [chlorpromazine, reference compound]",cytotoxicity,[9]; human,> 75%
same,inhibitory concentration of known endocytosis inhibitor,[10]; 7× higher than the derivatives,0.07 mM
